Assay results: PubChem BioAssay (NCI)
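Results reflect a 48-hour exposure of cells in 96-well plates to compound at five concentrations. TGI: concentration producing complete growth inhibition.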

How the values were obtained:
Assay in all cases: NCI tumour cell line growth inhibition, 48 h
NCI-H226 lung = system: NCI-H226 lung
OVCAR-3 ovarian = system: OVCAR-3 ovarian
HL-60(TB) leukemia = system: HL-60(TB) leukemia
MDA-MB-435 = system: MDA-MB-435
MOLT-4 leukemia = system: MOLT-4 leukemia
RPMI-8226 leukemia = system: RPMI-8226 leukemia
HCT-116 colon = system: HCT-116 colon
HT29 colon = system: HT29 colon
PC-3 prostate = system: PC-3 prostate
A498 renal = system: A498 renal
UO-31 renal = system: UO-31 renal
MCF7 breast = system: MCF7 breast
NCI-H522 lung = system: NCI-H522 lung
KM12 colon = system: KM12 colon
SF-268 CNS = system: SF-268 CNS
OVCAR-4 ovarian = system: OVCAR-4 ovarian
SF-539 CNS = system: SF-539 CNS
786-0 renal = system: 786-0 renal
HCT-15 colon = system: HCT-15 colon
HCC-2998 colon = system: HCC-2998 colon
HOP-62 NSCLC = system: HOP-62 NSCLC
RXF 393 renal = system: RXF 393 renal
CCRF-CEM leukemia = system: CCRF-CEM leukemia
MALME-3M melanoma = system: MALME-3M melanoma
SW-620 colon = system: SW-620 colon
MDA-N = system: MDA-N
OVCAR-8 ovarian = system: OVCAR-8 ovarian
K-562 leukemia = system: K-562 leukemia
TK-10 renal = system: TK-10 renal
NCI-H23 lung = system: NCI-H23 lung
EKVX NSCLC = system: EKVX NSCLC
T-47D breast = system: T-47D breast
HS 578T breast = system: HS 578T breast
ACHN renal = system: ACHN renal
UACC-62 melanoma = system: UACC-62 melanoma
A549 NSCLC = system: A549 NSCLC
SN12C renal = system: SN12C renal
U251 CNS = system: U251 CNS
SK-MEL-2 melanoma = system: SK-MEL-2 melanoma
DU-145 prostate = system: DU-145 prostate
SK-MEL-5 melanoma = system: SK-MEL-5 melanoma
HOP-92 NSCLC = system: HOP-92 NSCLC
M14 melanoma = system: M14 melanoma
OVCAR-5 ovarian = system: OVCAR-5 ovarian
SR leukemia = system: SR leukemia
SNB-19 CNS = system: SNB-19 CNS
SK-MEL-28 melanoma = system: SK-MEL-28 melanoma
MDA-MB-231 breast = system: MDA-MB-231 breast
COLO 205 colon = system: COLO 205 colon
IGROV1 ovarian = system: IGROV1 ovarian
NCI-H460 lung = system: NCI-H460 lung
LOX IMVI melanoma = system: LOX IMVI melanoma
SF-295 CNS = system: SF-295 CNS
BT-549 breast = system: BT-549 breast
SK-OV-3 ovarian = system: SK-OV-3 ovarian
SNB-75 CNS = system: SNB-75 CNS
UACC-257 melanoma = system: UACC-257 melanoma
NCI/ADR-RES ovarian = system: NCI/ADR-RES ovarian

SMILES: CC(C)C1=CC23CCC4C(C)(C(=O)O)CCCC4(C)C2CC1C1C(=O)N(c2ccc(Cc4ccc(N5C(=O)C6C7CC8C9(C)CCCC(C)(C(=O)O)C9CCC8(C=C7C(C)C)C6C5=O)cc4)cc2)C(=O)C13 (stereo unspecified)
- TGI (NCI-H226 lung): 28.4 µM
- TGI (OVCAR-3 ovarian): 22.6 µM
- TGI (HL-60(TB) leukemia): 63.2 µM
- TGI (MDA-MB-435): 13.3 µM
- TGI (MOLT-4 leukemia): 32.9 µM
- TGI (RPMI-8226 leukemia): > 100 µM
- TGI (HCT-116 colon): 19.1 µM
- TGI (HT29 colon): 8.58 µM
- TGI (PC-3 prostate): 15.7 µM
- TGI (A498 renal): 22.5 µM
- TGI (UO-31 renal): 31.3 µM
- TGI (MCF7 breast): 18.9 µM
- TGI (NCI-H522 lung): 24.1 µM
- TGI (KM12 colon): 20.2 µM
- TGI (SF-268 CNS): 27.4 µM
- TGI (OVCAR-4 ovarian): 33.2 µM
- TGI (SF-539 CNS): 20.1 µM
- TGI (786-0 renal): 22.8 µM
- TGI (HCT-15 colon): 24.5 µM
- TGI (HCC-2998 colon): 21.7 µM
- TGI (HOP-62 NSCLC): 25.2 µM
- TGI (RXF 393 renal): 27.4 µM
- TGI (CCRF-CEM leukemia): 38.5 µM
- TGI (MALME-3M melanoma): 30.4 µM
- TGI (SW-620 colon): 31.2 µM
- TGI (MDA-N): 24.8 µM
- TGI (OVCAR-8 ovarian): 22.5 µM
- TGI (K-562 leukemia): > 100 µM
- TGI (TK-10 renal): 29.7 µM
- TGI (NCI-H23 lung): 10.9 µM
- TGI (EKVX NSCLC): 24.9 µM
- TGI (T-47D breast): 42.6 µM
- TGI (HS 578T breast): 32.8 µM
- TGI (ACHN renal): 17.8 µM
- TGI (UACC-62 melanoma): 29.7 µM
- TGI (A549 NSCLC): 15.7 µM
- TGI (SN12C renal): 25.3 µM
- TGI (U251 CNS): 14.4 µM
- TGI (SK-MEL-2 melanoma): 26.4 µM
- TGI (DU-145 prostate): 25.3 µM
- TGI (SK-MEL-5 melanoma): 24.8 µM
- TGI (HOP-92 NSCLC): 36.8 µM
- TGI (M14 melanoma): 22.1 µM
- TGI (OVCAR-5 ovarian): 35.8 µM
- TGI (SR leukemia): 28 µM
- TGI (SNB-19 CNS): 17.9 µM
- TGI (SK-MEL-28 melanoma): 24.9 µM
- TGI (MDA-MB-231 breast): 58.8 µM
- TGI (COLO 205 colon): 26.4 µM

SMILES: N=C(N)C1CN(CCc2c[nH]c3ccccc23)C(=O)NC1=O (stereo unspecified)
- TGI (NCI-H226 lung): > 100 µM
- TGI (OVCAR-3 ovarian): > 100 µM
- TGI (HL-60(TB) leukemia): > 100 µM
- TGI (IGROV1 ovarian): > 100 µM
- TGI (MDA-MB-435): > 100 µM
- TGI (MOLT-4 leukemia): > 100 µM
- TGI (RPMI-8226 leukemia): > 100 µM
- TGI (HCT-116 colon): > 100 µM
- TGI (HT29 colon): > 100 µM
- TGI (NCI-H460 lung): > 100 µM
- TGI (PC-3 prostate): > 100 µM
- TGI (A498 renal): > 100 µM
- TGI (UO-31 renal): > 100 µM
- TGI (MCF7 breast): > 100 µM
- TGI (LOX IMVI melanoma): > 100 µM
- TGI (SF-268 CNS): > 100 µM
- TGI (SF-295 CNS): > 100 µM
- TGI (OVCAR-4 ovarian): > 100 µM
- TGI (BT-549 breast): > 100 µM
- TGI (786-0 renal): > 100 µM
- TGI (HCT-15 colon): > 100 µM
- TGI (HCC-2998 colon): > 100 µM
- TGI (HOP-62 NSCLC): > 100 µM
- TGI (SK-OV-3 ovarian): > 100 µM
- TGI (CCRF-CEM leukemia): > 100 µM
- TGI (MALME-3M melanoma): > 100 µM
- TGI (SW-620 colon): > 100 µM
- TGI (MDA-N): > 100 µM
- TGI (OVCAR-8 ovarian): > 100 µM
- TGI (K-562 leukemia): > 100 µM
- TGI (TK-10 renal): > 100 µM
- TGI (NCI-H23 lung): > 100 µM
- TGI (EKVX NSCLC): > 100 µM
- TGI (T-47D breast): > 100 µM
- TGI (SNB-75 CNS): > 100 µM
- TGI (ACHN renal): > 100 µM
- TGI (UACC-62 melanoma): > 100 µM
- TGI (A549 NSCLC): > 100 µM
- TGI (SN12C renal): > 100 µM
- TGI (U251 CNS): > 100 µM
- TGI (UACC-257 melanoma): > 100 µM
- TGI (DU-145 prostate): > 100 µM
- TGI (SK-MEL-5 melanoma): > 100 µM
- TGI (HOP-92 NSCLC): > 100 µM
- TGI (M14 melanoma): > 100 µM
- TGI (OVCAR-5 ovarian): > 100 µM
- TGI (SR leukemia): > 100 µM
- TGI (SNB-19 CNS): > 100 µM
- TGI (SK-MEL-28 melanoma): > 100 µM
- TGI (MDA-MB-231 breast): > 100 µM
- TGI (COLO 205 colon): > 100 µM
- TGI (NCI/ADR-RES ovarian): > 100 µM
